Measured values published in ChEMBL document CHEMBL1201862, “PubChem BioAssay data set” (2004).
Activity calls are given as the source filed them.

Assays:
[1] = target: Sphingosine 1-phosphate receptor 2 (Homo sapiens, UniProt O95136); assay: Dose Response Cell Based Assay for Agonists of the S1P2 Receptor of Purchased Analogues. [Related pubchem assays: 729, 843, 854, 736 ]; type: functional
[2] = target: Cytochrome P450 2C9 (Homo sapiens, UniProt P11712); details: Potency
[3] = target: Cytochrome P450 2C19 (Homo sapiens, UniProt P33261); assay: qHTS Assay for Inhibitors and Substrates of Cytochrome P450 2C19. [Related pubchem assays: 410 ]; type: ADME; details: read-out: Potency
Sequence of Cytochrome P450 2C19 (P33261 whole entry): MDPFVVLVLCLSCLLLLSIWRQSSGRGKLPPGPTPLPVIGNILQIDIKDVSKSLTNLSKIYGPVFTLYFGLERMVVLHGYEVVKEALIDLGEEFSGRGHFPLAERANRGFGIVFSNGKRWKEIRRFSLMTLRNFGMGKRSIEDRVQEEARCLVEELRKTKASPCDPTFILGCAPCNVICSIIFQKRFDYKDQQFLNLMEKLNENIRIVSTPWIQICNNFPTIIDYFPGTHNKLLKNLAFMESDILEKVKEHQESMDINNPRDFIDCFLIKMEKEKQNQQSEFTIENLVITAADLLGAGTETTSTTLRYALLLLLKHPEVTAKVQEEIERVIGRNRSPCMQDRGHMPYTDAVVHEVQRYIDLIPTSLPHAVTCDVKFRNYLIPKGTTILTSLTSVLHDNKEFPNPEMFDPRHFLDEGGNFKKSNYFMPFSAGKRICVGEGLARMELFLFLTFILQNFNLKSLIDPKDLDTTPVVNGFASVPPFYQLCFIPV

[4] = target: Caspase-6 (Homo sapiens, UniProt P55212); assay: inhibition of CASP6 peptide cleavage – biochemical, VEID-R110 fluorescence, cherry-pick, dose response (AID 720632)
Sequence of Caspase-6 (P55212 24-179 limits assumed): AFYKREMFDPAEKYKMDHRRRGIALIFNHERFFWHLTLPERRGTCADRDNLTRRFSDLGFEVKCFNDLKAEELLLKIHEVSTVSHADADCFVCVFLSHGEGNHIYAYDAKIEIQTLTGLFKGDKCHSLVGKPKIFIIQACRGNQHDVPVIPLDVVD
Sequence of Caspase-6 (P55212 194-293 limits assumed): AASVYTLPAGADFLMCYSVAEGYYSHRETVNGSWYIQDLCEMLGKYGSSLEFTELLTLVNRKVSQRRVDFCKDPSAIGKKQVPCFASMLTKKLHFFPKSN

[5] = antiviral protection against BTV-induced cell death – arbovirus, BSR cells, confirmation (AID 1250); type: functional;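 note: protection from viral cytopathic effect measured as cell viability by ATP luminescence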
[6] = THP-1 cell cytotoxicity, dose response, cytotoxicity control for non-replicating M. tuberculosis project (AID 489025); type: functional
[7] = microbe, parasite or virus in culture; type: functional; details: Mycobacterium tuberculosis
[8] = target: Neuropeptide Y receptor type 2 (Homo sapiens, UniProt P49146); assay: IC50 for human NPY-Y2 blockade – cell-based, counter-screen for NPY-Y1 antagonist project, dose response (AID 1278); type: functional
Sequence of Neuropeptide Y receptor type 2 (P49146 whole entry): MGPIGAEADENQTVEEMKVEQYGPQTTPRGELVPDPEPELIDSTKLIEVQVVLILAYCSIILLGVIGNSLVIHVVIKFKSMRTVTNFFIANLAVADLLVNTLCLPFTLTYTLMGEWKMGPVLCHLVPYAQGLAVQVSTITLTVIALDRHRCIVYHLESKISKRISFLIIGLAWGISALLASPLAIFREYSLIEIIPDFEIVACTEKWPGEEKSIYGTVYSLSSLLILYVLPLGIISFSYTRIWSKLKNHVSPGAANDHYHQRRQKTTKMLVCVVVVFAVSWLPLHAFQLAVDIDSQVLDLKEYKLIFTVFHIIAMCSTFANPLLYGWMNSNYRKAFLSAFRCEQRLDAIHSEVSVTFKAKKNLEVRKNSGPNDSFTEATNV

[9] = target: Neuropeptide Y receptor type 1 (Homo sapiens, UniProt P25929); assay: IC50 of human NPY-Y1 blockers – cell-based, dose response (AID 1277); type: functional
Sequence of Neuropeptide Y receptor type 1 (P25929 whole entry): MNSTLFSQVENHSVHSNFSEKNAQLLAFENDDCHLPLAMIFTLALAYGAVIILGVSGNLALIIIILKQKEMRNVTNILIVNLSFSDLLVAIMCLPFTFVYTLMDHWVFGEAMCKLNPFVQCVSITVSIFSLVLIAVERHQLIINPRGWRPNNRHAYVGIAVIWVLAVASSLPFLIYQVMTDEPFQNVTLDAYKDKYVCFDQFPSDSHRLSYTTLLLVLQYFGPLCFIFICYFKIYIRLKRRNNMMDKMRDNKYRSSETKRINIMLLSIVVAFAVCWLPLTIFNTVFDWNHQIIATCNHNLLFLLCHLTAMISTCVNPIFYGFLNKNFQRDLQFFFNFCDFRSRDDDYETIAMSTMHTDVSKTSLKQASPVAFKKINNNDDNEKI

[10] = cells; type: functional
[11] = target: Galanin receptor type 2 (Homo sapiens, UniProt O43603); assay: Dose Response cell-based high-throughput screening assay to identify antagonists of galanin receptor 2 (GALR2). [Related pubchem assays: 828, 866 ]; type: functional
Sequence of Galanin receptor type 2 (O43603 whole entry): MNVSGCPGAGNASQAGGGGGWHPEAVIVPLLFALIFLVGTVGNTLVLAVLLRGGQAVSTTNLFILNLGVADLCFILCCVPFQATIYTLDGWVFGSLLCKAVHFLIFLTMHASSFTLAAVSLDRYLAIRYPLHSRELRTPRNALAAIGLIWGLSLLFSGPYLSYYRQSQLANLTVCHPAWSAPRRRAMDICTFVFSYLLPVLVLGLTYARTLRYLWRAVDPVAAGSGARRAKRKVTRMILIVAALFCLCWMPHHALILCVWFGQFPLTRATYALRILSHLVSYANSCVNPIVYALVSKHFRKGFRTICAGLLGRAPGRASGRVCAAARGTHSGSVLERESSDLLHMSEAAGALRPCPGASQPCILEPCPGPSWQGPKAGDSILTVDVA

[12] = target: Voltage-gated inwardly rectifying potassium channel KCNH2 (Homo sapiens, UniProt Q12809); assay: concentration-dependent hERG rescue from blockers – cell-based, thallium flux, dose response (AID 2121); type: ADME
Sequence of Voltage-gated inwardly rectifying potassium channel KCNH2 (Q12809 whole entry): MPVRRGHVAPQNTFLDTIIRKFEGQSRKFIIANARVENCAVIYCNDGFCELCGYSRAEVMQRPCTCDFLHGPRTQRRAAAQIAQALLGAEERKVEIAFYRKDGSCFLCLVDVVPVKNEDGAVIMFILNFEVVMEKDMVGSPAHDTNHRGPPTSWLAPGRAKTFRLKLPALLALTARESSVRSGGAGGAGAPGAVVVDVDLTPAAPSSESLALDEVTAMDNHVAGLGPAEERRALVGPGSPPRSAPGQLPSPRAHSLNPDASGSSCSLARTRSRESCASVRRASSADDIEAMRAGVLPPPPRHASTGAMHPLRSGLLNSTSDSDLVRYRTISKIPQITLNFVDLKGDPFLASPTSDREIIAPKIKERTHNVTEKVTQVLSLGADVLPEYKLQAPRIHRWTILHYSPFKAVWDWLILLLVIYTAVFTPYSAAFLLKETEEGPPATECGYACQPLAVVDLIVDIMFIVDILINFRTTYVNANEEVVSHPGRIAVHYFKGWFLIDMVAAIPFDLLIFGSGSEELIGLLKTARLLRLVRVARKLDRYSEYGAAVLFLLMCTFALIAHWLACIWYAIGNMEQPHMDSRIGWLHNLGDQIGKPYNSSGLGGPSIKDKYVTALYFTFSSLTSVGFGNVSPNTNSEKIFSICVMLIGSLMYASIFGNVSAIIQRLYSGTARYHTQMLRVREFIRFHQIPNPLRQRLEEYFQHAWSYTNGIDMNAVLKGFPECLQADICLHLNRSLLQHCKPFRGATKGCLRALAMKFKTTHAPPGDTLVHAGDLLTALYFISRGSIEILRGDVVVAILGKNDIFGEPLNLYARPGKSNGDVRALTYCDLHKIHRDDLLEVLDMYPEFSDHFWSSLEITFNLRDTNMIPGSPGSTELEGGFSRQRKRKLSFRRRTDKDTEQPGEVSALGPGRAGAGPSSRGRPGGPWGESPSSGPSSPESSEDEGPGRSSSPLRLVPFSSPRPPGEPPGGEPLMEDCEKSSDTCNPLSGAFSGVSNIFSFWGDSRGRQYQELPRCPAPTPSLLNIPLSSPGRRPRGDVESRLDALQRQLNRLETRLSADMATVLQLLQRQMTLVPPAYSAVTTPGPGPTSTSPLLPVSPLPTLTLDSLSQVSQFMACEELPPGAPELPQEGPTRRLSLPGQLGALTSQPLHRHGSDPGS

[13] = NIH-3T3 fibroblast cytotoxicity, dose response, cytotoxicity control, cell-based, fluorescence, Alamar Blue, secondary assay (AID 2327); type: functional;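 note: NIH-3T3 mouse fibroblasts cultured with fluconazole at 8 µg/mL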
[14] = fluconazole-exposed Candida albicans growth modulators – fluorescence, retest, confirmation (AID 2467); type: functional, cell-based
[15] = target: T1, Rac GTPase-activating protein 1 (Homo sapiens, UniProt Q9H0H5); assay: blockers of MgcRacGAP-driven Rac1 GTP hydrolysis – biochemical, ADP Hunter fluorescence, primary and confirmatory, confirmation (AID 624330); type: functional
T1 sequence (Q9H0H5 whole entry): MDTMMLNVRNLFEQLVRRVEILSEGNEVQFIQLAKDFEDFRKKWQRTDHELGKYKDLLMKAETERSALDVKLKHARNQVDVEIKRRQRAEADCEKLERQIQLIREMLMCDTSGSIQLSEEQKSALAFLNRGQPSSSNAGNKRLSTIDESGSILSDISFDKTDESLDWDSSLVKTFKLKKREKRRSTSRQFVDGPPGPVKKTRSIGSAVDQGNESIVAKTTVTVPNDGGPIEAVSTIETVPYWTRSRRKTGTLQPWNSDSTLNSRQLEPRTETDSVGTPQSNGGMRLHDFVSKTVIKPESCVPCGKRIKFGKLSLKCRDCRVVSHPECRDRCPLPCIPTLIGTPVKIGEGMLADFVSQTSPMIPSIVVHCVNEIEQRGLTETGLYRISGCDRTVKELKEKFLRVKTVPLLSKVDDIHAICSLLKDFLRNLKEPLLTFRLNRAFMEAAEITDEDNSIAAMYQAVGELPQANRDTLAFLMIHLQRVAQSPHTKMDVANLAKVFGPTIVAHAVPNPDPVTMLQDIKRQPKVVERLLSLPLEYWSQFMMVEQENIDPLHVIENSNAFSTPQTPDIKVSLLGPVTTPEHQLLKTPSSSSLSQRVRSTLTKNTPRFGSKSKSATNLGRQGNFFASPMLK

[16] = target: T2, NADPH oxidase 1 (Homo sapiens, UniProt Q9Y5S8); assay: Luminescence-based cell-based dose response assay to identify inhibitors of NADPH oxidase 1 (NOX1).; type: functional
T2 sequence (Q9Y5S8 whole entry): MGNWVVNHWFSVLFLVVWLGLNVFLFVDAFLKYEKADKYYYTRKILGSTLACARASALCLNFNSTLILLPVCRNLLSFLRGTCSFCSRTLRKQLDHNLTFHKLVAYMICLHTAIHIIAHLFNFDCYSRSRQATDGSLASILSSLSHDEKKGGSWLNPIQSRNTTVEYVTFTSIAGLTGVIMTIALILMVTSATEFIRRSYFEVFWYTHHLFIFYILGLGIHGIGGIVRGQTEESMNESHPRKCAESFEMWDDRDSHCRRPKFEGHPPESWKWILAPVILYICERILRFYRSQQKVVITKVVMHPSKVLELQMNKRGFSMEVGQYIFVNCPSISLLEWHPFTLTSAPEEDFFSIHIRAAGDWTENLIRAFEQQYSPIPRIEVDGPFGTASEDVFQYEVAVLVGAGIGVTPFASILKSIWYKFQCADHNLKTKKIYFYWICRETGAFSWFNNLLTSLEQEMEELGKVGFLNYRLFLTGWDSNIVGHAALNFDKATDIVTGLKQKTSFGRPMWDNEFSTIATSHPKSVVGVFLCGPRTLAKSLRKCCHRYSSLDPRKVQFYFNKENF

[17] = target: Estrogen receptor beta (Homo sapiens, UniProt Q92731); assay: blockers of SRC-3 recruitment to ERβ – biochemical, ELISA, streptavidin-HRP readout, orthogonal assay, confirmation (AID 1060)
Sequence of Estrogen receptor beta (Q92731 whole entry): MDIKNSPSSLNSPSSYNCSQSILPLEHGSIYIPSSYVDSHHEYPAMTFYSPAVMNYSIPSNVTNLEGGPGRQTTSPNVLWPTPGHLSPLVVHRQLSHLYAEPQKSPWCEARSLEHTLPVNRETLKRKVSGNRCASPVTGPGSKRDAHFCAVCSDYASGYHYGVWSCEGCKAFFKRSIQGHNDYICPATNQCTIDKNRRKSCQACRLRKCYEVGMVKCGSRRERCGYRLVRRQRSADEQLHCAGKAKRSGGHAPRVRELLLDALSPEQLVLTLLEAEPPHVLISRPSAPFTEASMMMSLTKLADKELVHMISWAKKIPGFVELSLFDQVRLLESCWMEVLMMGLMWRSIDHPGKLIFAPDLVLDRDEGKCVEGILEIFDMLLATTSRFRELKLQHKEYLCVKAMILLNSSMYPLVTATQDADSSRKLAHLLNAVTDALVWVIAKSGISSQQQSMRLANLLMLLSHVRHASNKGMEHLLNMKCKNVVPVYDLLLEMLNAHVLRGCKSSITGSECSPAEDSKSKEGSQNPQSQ

[18] = target: T2, NADPH oxidase 1; type: functional, cell-based
[19] = target: T3, Replicative DNA helicase DnaB (Mycobacterium tuberculosis, UniProt P9WMR3); assay: DnaB intein splicing inhibitors, dose response, biochemical, cell-free fluorescence (AID 449749); type: functional
T3 sequence (P9WMR3 whole entry): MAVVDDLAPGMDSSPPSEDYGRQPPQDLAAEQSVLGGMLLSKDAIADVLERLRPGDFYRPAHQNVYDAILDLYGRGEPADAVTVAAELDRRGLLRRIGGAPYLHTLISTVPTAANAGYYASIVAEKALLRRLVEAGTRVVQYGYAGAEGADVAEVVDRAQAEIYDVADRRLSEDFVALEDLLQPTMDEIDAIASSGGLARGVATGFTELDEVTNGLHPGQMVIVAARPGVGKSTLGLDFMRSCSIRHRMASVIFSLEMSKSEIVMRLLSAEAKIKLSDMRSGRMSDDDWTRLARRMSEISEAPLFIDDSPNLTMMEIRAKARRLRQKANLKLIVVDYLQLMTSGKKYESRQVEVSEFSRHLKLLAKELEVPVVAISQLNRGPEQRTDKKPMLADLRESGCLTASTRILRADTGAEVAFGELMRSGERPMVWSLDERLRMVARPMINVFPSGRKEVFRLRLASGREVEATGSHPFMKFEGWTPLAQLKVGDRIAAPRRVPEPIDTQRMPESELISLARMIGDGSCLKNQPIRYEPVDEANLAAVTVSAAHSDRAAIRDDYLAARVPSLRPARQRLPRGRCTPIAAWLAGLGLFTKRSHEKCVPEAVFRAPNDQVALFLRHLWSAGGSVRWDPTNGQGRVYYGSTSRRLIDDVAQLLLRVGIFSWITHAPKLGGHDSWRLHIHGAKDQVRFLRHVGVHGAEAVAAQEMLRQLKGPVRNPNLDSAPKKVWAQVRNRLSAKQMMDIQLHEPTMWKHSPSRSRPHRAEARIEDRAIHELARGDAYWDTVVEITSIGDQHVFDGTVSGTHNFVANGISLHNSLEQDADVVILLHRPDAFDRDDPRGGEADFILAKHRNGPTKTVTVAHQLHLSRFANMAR

[20] = Vero E6 cell cytotoxicity, dose response, cytotoxicity control for non-replicating M. tuberculosis project, secondary assay (AID 492998); type: functional, VeroE6; details: Vero C1008
[21] = Fluorescence-based cell-based high throughput dose response assay for inhibitors of the interaction of nucleotide-binding oligomerization domain containing 2 (NOD2) and the receptor-interacting serine-threonine kinase 2 (RIPK2).; type: functional; details: Homo sapiens
[22] = target: T4, Protein RecA (Mycobacterium tuberculosis, UniProt P9WHJ3); assay: Fluorescence Cell-Free Homogeneous Dose Retest to Identify Inhibitors of RecA-Intein Splicing Activity. [Related pubchem assays (depositor defined):AID2097, AID2223, AID489010, AID492950]; type: functional
T4 sequence (P9WHJ3 whole entry): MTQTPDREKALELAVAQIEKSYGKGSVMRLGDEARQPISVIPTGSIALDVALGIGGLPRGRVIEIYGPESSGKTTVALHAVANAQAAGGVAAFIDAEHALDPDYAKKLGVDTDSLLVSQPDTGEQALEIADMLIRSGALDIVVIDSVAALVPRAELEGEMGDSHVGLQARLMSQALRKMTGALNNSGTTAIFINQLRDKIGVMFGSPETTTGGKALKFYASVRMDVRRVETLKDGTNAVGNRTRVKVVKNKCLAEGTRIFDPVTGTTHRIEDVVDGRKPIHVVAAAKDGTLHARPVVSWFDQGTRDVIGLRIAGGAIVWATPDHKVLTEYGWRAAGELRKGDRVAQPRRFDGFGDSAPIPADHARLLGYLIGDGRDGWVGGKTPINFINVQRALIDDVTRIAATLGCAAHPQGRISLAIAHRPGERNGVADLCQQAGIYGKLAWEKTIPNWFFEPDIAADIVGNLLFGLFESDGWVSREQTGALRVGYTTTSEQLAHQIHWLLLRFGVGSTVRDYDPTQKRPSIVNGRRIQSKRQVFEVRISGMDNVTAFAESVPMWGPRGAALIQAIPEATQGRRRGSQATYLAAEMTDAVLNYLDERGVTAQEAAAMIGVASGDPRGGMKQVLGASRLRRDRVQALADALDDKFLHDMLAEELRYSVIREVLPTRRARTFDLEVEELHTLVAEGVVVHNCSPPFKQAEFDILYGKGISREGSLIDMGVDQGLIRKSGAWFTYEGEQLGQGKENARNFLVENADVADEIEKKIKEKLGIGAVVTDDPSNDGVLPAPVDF

[23] = Luminescent dose response cell-based high throughput screening assay for inhibitors of the Janus kinase 2 mutant JAK2V617F. [Related pubchem assays: 1446 (Primary screen.), 1521 (Confirmation assay.), 1486 (Counter screen.)]; type: functional
[24] = HepG2 cell cytotoxicity, dose response, cytotoxicity control for non-replicating M. tuberculosis project (AID 489018); type: functional; details: Mycobacterium tuberculosis
[25] = target: T5, Heat shock factor protein 1 (Mus musculus, UniProt P38532); assay: enhancement of HSF1-driven luciferase signal – cell-based, NIH3T3, luminescence, dose retest, confirmation (AID 435004); type: functional;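 note: stress induced by proteasome inhibitor MG132 added 30 min after compound; luciferase reporter driven by HSF1 response element in NIH3T3 cells; actives raise luminescence as potentiators of the MG132 stress response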
T5 sequence (P38532 whole entry): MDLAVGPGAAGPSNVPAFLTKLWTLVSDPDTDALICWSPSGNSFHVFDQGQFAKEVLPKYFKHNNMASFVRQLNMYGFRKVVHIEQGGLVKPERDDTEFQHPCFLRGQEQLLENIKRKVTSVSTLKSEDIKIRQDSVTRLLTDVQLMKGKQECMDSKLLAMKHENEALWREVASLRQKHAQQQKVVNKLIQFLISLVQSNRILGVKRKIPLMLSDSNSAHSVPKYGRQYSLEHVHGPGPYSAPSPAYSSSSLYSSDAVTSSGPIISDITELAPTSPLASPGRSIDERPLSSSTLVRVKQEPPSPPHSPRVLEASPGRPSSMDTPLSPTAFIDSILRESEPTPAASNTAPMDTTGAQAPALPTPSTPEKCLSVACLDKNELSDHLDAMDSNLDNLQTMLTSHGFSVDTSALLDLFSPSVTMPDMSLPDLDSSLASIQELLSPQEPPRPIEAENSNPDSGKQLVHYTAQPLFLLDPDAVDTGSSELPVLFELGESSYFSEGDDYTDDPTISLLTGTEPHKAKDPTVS

[26] = target: Paired box protein Pax-8 (Homo sapiens, UniProt Q06710); assay: PAX8 transcriptional activity inhibition in RMG-I – RMG-I cells, luciferase, cherry-pick, dose response (AID 687027); type: functional, cell-based;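 note: luciferase reporter driven by Pax8 target thyroperoxidase promoter measured by SteadyGlo luminescence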
Sequence of Paired box protein Pax-8 (Q06710 whole entry): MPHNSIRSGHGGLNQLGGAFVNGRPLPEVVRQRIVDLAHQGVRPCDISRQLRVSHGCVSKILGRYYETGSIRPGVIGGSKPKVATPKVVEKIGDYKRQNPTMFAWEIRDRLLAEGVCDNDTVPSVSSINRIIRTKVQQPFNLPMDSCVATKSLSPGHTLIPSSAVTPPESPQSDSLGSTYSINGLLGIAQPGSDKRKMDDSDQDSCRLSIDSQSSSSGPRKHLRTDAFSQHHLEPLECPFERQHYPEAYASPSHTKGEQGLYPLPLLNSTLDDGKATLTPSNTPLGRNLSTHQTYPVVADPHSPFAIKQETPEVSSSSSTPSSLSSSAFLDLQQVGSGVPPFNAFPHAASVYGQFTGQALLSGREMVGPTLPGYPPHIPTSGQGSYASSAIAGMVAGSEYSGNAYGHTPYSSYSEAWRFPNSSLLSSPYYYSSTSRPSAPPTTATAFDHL

[27] = general cell-killing toxicity readout – plate reader, dry powder samples, cytotoxicity control for PAX8 inhibitor project, dose response (AID 743021); type: functional, cell-based
[28] = system: Danio rerio; assay: In Vivo Angiogenesis Dose-Response Confirmation. [Related pubchem assays: 732 (Assay preceding this confirmatory assay.)]; type: functional, organism-based

Sequence of Cytochrome P450 2C9 (P11712 whole entry): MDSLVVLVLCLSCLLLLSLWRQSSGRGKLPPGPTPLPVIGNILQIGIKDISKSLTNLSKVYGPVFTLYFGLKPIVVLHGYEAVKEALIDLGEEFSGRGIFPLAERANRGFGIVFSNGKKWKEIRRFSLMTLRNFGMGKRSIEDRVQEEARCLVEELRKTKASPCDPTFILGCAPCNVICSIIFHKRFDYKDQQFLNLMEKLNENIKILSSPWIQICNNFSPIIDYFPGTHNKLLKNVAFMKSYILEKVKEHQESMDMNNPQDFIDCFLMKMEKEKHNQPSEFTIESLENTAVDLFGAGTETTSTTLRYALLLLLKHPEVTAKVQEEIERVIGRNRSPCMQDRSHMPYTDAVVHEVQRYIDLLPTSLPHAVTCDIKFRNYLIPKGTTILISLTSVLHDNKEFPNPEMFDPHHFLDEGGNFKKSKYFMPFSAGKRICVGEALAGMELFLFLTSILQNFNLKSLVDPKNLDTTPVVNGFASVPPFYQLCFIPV
Sequence of Sphingosine 1-phosphate receptor 2 (O95136 whole entry): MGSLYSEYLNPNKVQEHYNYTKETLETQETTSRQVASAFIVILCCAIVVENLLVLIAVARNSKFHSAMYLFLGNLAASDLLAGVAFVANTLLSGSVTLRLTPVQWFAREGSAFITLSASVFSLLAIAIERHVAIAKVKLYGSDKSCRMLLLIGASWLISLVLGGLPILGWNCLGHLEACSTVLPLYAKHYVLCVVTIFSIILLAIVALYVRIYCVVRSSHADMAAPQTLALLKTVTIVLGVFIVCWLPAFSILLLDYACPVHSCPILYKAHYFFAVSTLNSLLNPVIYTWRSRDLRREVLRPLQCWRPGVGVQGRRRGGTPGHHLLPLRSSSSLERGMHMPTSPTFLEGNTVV

Cc1sc2ncn(CC(=O)c3cc(C)n(Cc4ccccc4)c3C)c(=O)c2c1C
EC50 [1]: > 30 µM (not active)

CC(=O)[C@H]1[C@H]2[C@H](C(=O)[C@@H]3OC[C@H]2O3)[C@@H]2c3ccccc3C=CN12
AC50 [2]: 31.6 µM (inconclusive)
AC50 [3]: 31.6 µM (inconclusive)

O=C(O)C1CCCCC1C(=O)Nc1nc(-c2ccc(Cl)s2)cs1 (stereo not given)
AC50 [4]: 32.9 µM (active)
IC50 [5]: 38.5 µM (active)

Cc1ccc(-n2cc(CNCCn3nc(C)cc3C)c(-c3ccc(F)cc3)n2)cc1
CC50 [6]: 23.5 µM (active)
CC50 [7]: > 40 µM (active)
IC50 [8]: > 35 µM (not active)
IC50 [9]: 10.6 µM (not active)
IC50 [10]: 4.38 µM (active)

O=C(/C=C/c1ccc(Cl)cc1)NC(=S)Nc1ccc(NC(=O)c2ccco2)cc1
IC50 [11]: 6.76 µM (active)

O=C(Nc1nc(=O)c2ccccc2s1)c1ccc(Cl)cc1
EC50 [12]: 0.84 µM (active)
EC50 [13]: > 150 µM (inactive)
EC50 [14]: > 38 µM (not active)

COc1ccc(NC(=O)Nc2ccc(N(C)C)cc2)cc1
IC50 [15]: 23.5 µM (active)
IC50 [16]: 0.156 µM (active)
IC50 [17]: 14.4 µM (not active)
IC50 [18]: 0.432 µM (active)

Cc1nc2c(=O)n(C)c(=O)n(C)c2nc1Cl
CC50 [6]: 12.1 µM (active)
AC50 [19]: 17.3 µM (active)
CC50 [20]: 7.41 µM (active)
IC50 [21]: 4.73 µM (active)
EC50 [22]: 8.48 µM (active)
IC50 [23]: 1.37 µM (active)
CC50 [24]: 10.6 µM (active)
EC50 [25]: 14.3 µM (active)
AC50 [26]: 8.88 µM (active)
IC50 [10]: 6.22 µM (active)
AC50 [27]: 32.9 µM (active)

O=C1Nc2ccc(F)cc2/C1=C1/Nc2ccc(Br)cc2C1=O
IC50 [28]: 0.35 µM (not active)
